Test results from PMC10732280 (2023).

Legend:
[1] = system: S100P i-motif (DNA, i motif) TCCCAACCCCACTGTCCCACCCT; assay: CD melting; conditions: K+ 100 mM, Li+ 10 mM; 10 mM lithium cacodylate pH 5.5; 10 μM DNA; 50 μM compound (5 eq.); destabilising
[2] = system: DAP i-motif (DNA, i motif) CCCCCGCCCCCGCCCCCGCCCCCGCCCCCG; assay: CD melting; conditions: K+ 100 mM, Li+ 10 mM; 10 mM lithium cacodylate pH 5.5; 10 μM DNA; 50 μM compound (5 eq.); destabilising
[3] = system: hTelo i-motif (DNA, i motif) TAACCCTAACCCTAACCCTAACCC; assay: CD melting; conditions: K+ 100 mM, Li+ 10 mM; 10 mM lithium cacodylate pH 5.5; 10 μM DNA; 50 μM compound (5 eq.); destabilising
[4] = system: ILPR i-motif (DNA, i motif) TGTCCCCACACCCCTGTCCCCACACCCCTGT; assay: CD melting; conditions: K+ 100 mM, Li+ 10 mM; 10 mM lithium cacodylate pH 5.5; 10 μM DNA; 50 μM compound (5 eq.); destabilising
[5] = system: S100P G-quadruplex (DNA, G4) AGGGTGGGACAGTGGGGTTGGGA; assay: UV-vis titration of ligand with DNA; conditions: K+ 100 mM, Li+ 10 mM; 10 mM lithium cacodylate; DNA at pH 7, ligand stock buffer pH 5.5; analysis method 1 (method 2: 1.5 ± 0.2)
[6] = system: S100P i-motif (DNA, i motif) TCCCAACCCCACTGTCCCACCCT; assay: UV-vis titration of ligand with DNA; conditions: K+ 100 mM, Li+ 10 mM; 10 mM lithium cacodylate pH 5.5; 5 μM ligand; analysis method 1 (method 2: 10.8 ± 2.9)
[7] = system: S100P i-motif (DNA, i motif) TCCCAACCCCACTGTCCCACCCT; assay: CD titration, Hill fit of ellipticity at 288 nm; conditions: K+ 100 mM, Li+ 10 mM; 10 mM lithium cacodylate pH 5.5; 10 μM DNA; i-motif unfolding; Hill n 2.3 ± 0.2

ΔTm [1]: −20.7 ± 1.1 °C
ΔTm [2]: -21.6 ± 1.1 °C
ΔTm [3]: -16.6 ± 0.7 °C
ΔTm [4]: -18.8 ± 0.4 °C
Kd [5]: 2.0 ± 0.3 µM
Kd [6]: 11.7 ± 2.9 µM
[D]50% [7]: 31 ± 4 µM
SMILES: O=C1c2cc(-c3ccc(CN4CCCC4)cc3)c3c4c(cc(NCCN5CCCC5)c(c24)C(=O)N1CCCN1CCOCC1)C(=O)N(CCCN1CCOCC1)C3=O
